According to publication PMC9602792, “Preclinical evaluation of the epithelial sodium channel inhibitor AZD5634 and implications on human translation” (American Journal of Physiology - Lung Cellular and …, 2022):

Biological target: T1, ENaC (Homo sapiens, UniProt P37088+P51168+P51170)
T1 construct: host or cells: primary normal human bronchial epithelial cells, ALI culture
T1 sequence (P37088 1-669): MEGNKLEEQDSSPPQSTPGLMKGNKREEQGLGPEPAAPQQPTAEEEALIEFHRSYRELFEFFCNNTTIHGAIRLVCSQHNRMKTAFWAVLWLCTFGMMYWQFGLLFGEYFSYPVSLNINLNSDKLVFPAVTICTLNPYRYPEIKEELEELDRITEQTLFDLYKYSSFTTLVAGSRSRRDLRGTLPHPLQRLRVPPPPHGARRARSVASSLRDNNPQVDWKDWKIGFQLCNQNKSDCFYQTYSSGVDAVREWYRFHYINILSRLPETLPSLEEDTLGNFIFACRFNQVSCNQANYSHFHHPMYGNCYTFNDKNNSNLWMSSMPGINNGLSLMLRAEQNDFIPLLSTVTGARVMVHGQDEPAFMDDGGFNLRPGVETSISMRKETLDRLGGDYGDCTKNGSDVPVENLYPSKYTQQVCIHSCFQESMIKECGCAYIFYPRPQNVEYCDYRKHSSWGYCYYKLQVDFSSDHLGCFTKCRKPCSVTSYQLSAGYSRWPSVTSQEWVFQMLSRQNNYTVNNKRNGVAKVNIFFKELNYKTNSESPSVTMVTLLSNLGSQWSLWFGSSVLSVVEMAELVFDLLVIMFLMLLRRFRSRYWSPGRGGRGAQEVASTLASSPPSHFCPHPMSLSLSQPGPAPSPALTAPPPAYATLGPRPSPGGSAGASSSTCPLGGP
T1 sequence (P51168 1-640): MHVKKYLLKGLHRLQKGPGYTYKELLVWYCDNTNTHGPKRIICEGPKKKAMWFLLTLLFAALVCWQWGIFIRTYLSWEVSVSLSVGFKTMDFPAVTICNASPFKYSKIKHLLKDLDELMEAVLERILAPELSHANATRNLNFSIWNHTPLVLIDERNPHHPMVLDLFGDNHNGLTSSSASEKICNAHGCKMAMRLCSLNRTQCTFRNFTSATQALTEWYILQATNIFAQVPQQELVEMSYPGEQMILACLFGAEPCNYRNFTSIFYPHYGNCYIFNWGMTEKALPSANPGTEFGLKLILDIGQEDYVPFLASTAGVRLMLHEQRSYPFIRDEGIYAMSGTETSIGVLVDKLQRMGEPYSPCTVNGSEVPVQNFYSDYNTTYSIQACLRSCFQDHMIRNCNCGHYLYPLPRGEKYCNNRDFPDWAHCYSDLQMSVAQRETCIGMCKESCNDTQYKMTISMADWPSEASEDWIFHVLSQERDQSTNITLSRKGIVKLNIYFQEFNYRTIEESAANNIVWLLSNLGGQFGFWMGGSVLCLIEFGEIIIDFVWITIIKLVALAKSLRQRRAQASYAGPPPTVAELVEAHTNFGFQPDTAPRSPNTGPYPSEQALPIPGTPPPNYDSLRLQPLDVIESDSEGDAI
T1 sequence (P51170 1-649): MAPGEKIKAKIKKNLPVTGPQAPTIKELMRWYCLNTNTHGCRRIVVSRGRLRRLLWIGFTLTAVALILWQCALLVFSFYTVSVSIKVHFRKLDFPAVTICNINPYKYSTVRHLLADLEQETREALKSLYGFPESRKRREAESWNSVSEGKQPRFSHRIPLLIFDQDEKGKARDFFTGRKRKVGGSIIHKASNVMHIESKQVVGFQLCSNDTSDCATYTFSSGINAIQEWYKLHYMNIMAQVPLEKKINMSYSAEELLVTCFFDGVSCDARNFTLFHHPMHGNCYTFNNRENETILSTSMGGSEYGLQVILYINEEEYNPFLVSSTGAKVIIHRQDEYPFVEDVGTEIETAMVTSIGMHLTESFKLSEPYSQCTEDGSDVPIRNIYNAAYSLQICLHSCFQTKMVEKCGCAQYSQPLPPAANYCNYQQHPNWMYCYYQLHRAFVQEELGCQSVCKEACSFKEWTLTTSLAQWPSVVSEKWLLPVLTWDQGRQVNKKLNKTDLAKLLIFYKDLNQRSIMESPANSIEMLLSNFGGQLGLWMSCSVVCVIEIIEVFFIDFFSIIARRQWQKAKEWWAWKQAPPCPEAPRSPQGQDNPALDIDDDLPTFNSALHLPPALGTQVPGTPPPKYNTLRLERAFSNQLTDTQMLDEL
Experiment: Ussing chamber Isc in F508del-homozygous CF HBEC cultures
Format: cell-based
Method: Using previously described techniques ([2], [37]), epithelial cells were harvested from excised lung tissue derived from CF donors homozygous for F508del CFTR, expanded, and grown until confluency was attained. […] To stimulate fresh mucus secretion and formation of an even ASL layer, the cells were washed 48–72 h before experimentation with PneumaCult ALI media (80 µL), added apically, and then aspirated following 30–45 min incubation at 37°C. The washing process was repeated with a 15-min incubation period and the mucus layer was allowed to reestablish, after which the cells were treated with 1 µL of AZD5634 (1 µM, apical), alone and in combination with lumacaftor and ivacaftor (luma/iva; 3 µM/10 µM, basolateral). PBS (1% DMSO, apical) served as a vehicle control. […] Only passage 1 and 2 monolayers were used for these studies.
CFTR-dependent ion transport electrophysiology was measured in HBEC cultures by Isc using modified P2300 Ussing chambers (Physiologic Instruments, San Diego, CA) as previously described ([37], [38]). […] All chambers were maintained at 37°C and agonist stimulation was initiated within 15 min of placement in the chambers.
Descriptive statistics were calculated and means compared using unpaired or paired t tests, or ANOVA, with post hoc analyses conducted for multiple comparisons where appropriate. For analyses of functional anatomy of en bloc trachea, a mixed linear model was used that corrected for within-animal correlation. All tests were two-sided and were computed using GraphPad Prism (GraphPad Software, Inc., La Jolla, CA). P-values <0.05 were considered significant. Statistics are reported as means ± SE, unless indicated otherwise.

With `NC(=NCc1ccccc1)NC(=O)c1nc(Cl)c(N)nc1N` [benzamil, reference compound] the “incremental Isc change” value (at 100 nM) was −2.7 ± 1.5 and the “cumulative ΔIsc” value (at the maximum concentration (10,000 nM)) was −12.1 ± 3.5.
